The record followed here is patent US10138255B2, “Piperazine derivatives as HIV protease inhibitors” (Merck Sharp & Dohme Corp., priority 2014, dated 2018).

The test system of this experiment is HIV-1 (H9IIIB strain). Put plainly: Cell-Based HIV Infection Assay Using a Reporter (MT4-GFP cells). The conditions noted are these: Human immunodeficiency virus 1, inflection point (IP) of viral growth inhibition; MT4-GFP cells infected with HIV-1 H9IIIB; 50% normal human serum; mean of at least two independent experiments; read-out: Cell Based IP (50% NHS). The essentials: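 MT4-GFP cells (HIV LTR-driven GFP) bulk-infected with HIV-1 H9IIIB at low MOI for 24 h, washed, then exposed to compounds in RPMI plus 50% normal human serum, 0.4% DMSO. Infected cells counted at 24 and 48 h; R0 = 48 h/24 h ratio, inhibition normalised to DMSO and triple-drug control; IP from 4-parameter fit.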
Take `COC(=O)N1CCC(c2ccc(Cl)cc2)([C@H](N)C(=O)Nc2cccc(F)c2CC[C@H]2CN[C@@H]3CCCS(=O)(=O)N2C3)CC1` [Example 14, Methyl 4-{(1S)-1-amino-2-[(2-{2-[(6R,9S)-2,2-dioxido-2-thia-1,7-diazabicyclo[4.3.1]dec-9-yl]ethyl}-3-fluorophenyl)amino]-2-oxoethyl}-4-(4-chlorophenyl)piperidine-1-carboxylate]: the EC50 came to 14 nM.

Consider `COC(=O)N[C@H](C(=O)N[C@H]1CCCC[C@@H]1CC[C@H]1CN[C@@H]2CCCS(=O)(=O)N1C2)[C@H](c1cncc(C(F)(F)F)c1)c1ccc(Cl)c(F)c1` [Example 97, methyl {(1S,2S)-2-(4-chloro-3-fluorophenyl)-1-{[(1S,2R)-2-{2-[(6R,9S)-2,2-dioxido-2-thia-1,7-diazabicyclo[4.3.1]dec-9-yl]ethyl}cyclohexyl]carbamoyl}-2-[5-(trifluoromethyl)pyridin-3-yl]ethyl}carbamate], for which the EC50 turned out to be 19 nM.

For the compound `COC(=O)N[C@H](C(=O)Nc1cccc(F)c1CCC1CNC2CCCS(=O)(=O)N1C2)[C@H](c1ccnc(OC)c1)c1ccc(Cl)c(F)c1` (stereo partly drawn) [Example 69, methyl [(1S,2R)-2-(4-chloro-3-fluorophenyl)-1-({2-[2-(2,2-dioxido-2-thia-1,7-diazabicyclo[4.3.1]dec-9-yl)ethyl]-3-fluorophenyl}carbamoyl)-2-(2-methoxypyridin-4-yl)ethyl]carbamate], the EC50 was found to be 13 nM.

As for `COC(=O)N[C@H](C(=O)Nc1cccc(F)c1CC[C@H]1CNC2CCCS(=O)(=O)N1C2)C1(c2ccc(Cl)cc2)CCOCC1` (stereo partly drawn) [Example 42, methyl {(1S)-1-[4-(4-chlorophenyl)tetrahydro-2H-pyran-4-yl]-2-[(2-{2-[(9S)-2,2-dioxido-2-thia-1,7-diazabicyclo[4.3.1]dec-9-yl]ethyl}-3-fluorophenyl)amino]-2-oxoethyl}carbamate], the EC50 amounted to 31 nM.

`N[C@H](C(=O)Nc1cccc(F)c1CC[C@H]1CN[C@@H]2CCCS(=O)(=O)N1C2)[C@H](c1cnc(C(F)(F)F)nc1)c1ccc(Cl)c(F)c1` [Example 249, (βS)-4-chloro-N-(2-{2-[(6R,9S)-2,2-dioxido-2-thia-1,7-diazabicyclo[4.3.1]dec-9-yl]ethyl}-3-fluorophenyl)-3-fluoro-β-[2-(trifluoromethyl)pyrimidin-5-yl]-L-phenylalaninamide]: the EC50 turned out to be 5.1 nM.

`N[C@H](C(=O)Nc1cccc(F)c1CCC1CNC2CCCS(=O)(=O)N1C2)[C@@H](c1ccc(F)cc1)c1ccc(C(F)(F)F)cc1` (stereo partly drawn) [Example 33, (βR)—N-{2-[2-(2,2-Dioxido-2-thia-1,7-diazabicyclo[4.3.1]dec-9-yl)ethyl]-3-fluorophenyl}-β-(4-fluorophenyl)-4-(trifluoromethyl)-L-phenylalaninamide]: the EC50 was 8.5 nM.

As for `COC(=O)N[C@H](C(=O)Nc1cccc(F)c1CCC1CNC2CCCS(=O)(=O)N1C2)[C@@H](c1ccc(Cl)cc1)c1ccnc(C(F)(F)F)c1` (stereo partly drawn) [Example 18, Methyl {(1S,2S)-2-(4-chlorophenyl)-1-({2-[2-(2,2-dioxido-2-thia-1,7-diazabicyclo[4.3.1]dec-9-yl)ethyl]-3-fluorophenyl}carbamoyl)-2-[2-(trifluoromethyl)pyridin-4-yl]ethyl}carbamate], the EC50 worked out at 8.7 nM.

Turning to `CO[C@H]1CC[C@](c2ccc(Cl)cc2)([C@H](N)C(=O)Nc2cccc(F)c2CC[C@H]2CN[C@@H]3CCCS(=O)(=O)N2C3)CC1` [Example 171, (2S)-2-amino-2-[trans-1-(4-chlorophenyl)-4-methoxycyclohexyl]-N-(2-{2-[(6R,9S)-2,2-dioxido-2-thia-1,7-diazabicyclo[4.3.1]dec-9-yl]ethyl}-3-fluorophenyl)ethanamide], the EC50 amounted to 34 nM.

On to `COC(=O)N[C@H](C(=O)Nc1cccc(F)c1CC[C@H]1CN[C@@H]2CCCS(=O)(=O)N1C2)[C@]1(c2ccc(F)cc2)CC[C@@H](OC)CC1` [Example 210, methyl {(1S)-2-[(2-{2-[(6R,9S)-2,2-dioxido-2-thia-1,7-diazabicyclo[4.3.1]dec-9-yl]ethyl}-3-fluorophenyl)amino]-1-[trans-1-(4-fluorophenyl)-4-methoxycyclohexyl]-2-oxoethyl}carbamate], for which the EC50 was determined as 16 nM.

Take `N[C@H](C(=O)Nc1cccc(F)c1CCC1CNC2CCCS(=O)(=O)N1C2)[C@@H](c1ccc(F)cc1)c1ccc2c(c1)CCC2` (stereo partly drawn) [Example 225, (2S,3S)-2-Amino-3-(2,3-dihydro-1H-inden-5-yl)-N-{2-[2-(2,2-dioxido-2-thia-1,7-diazabicyclo[4.3.1]dec-9-yl)ethyl]-3-fluorophenyl}-3-(4-fluorophenyl)propanamide]: the EC50 came out at 45 nM.

With `COC(=O)N[C@H](C(=O)Nc1cccc(F)c1CC[C@H]1CN[C@@H]2CCCS(=O)(=O)N1C2)[C@@H](c1ccc(F)cc1)[C@H]1C[C@@H](OC)C1` [Example 105, methyl [(1S)-2-[(2-{2-[(6R,9S)-2,2-dioxido-2-thia-1,7-diazabicyclo[4.3.1]dec-9-yl]ethyl}-3-fluorophenyl)amino]-1-{(R)-(4-fluorophenyl)[(1s,3S)-3-methoxycyclobutyl]methyl}-2-oxoethyl]carbamate], the EC50 worked out at 33 nM.

As for `CC1(C)CC([C@H](c2ccc(Cl)cc2)[C@H](NC(=O)CN)C(=O)N[C@H]2CCC[C@@H]2CC[C@H]2CN[C@@H]3CCCS(=O)(=O)N2C3)CCO1` (stereo partly drawn) [Example 232, glycyl-(βR)-4-chloro-β-(2,2-dimelhyltetrahydro-2H-pyran-4-yl)-N-[(1S,2R)-2-{2-[(6R,9S)-2,2-dioxido-2-thia-1,7-diazabicyclo[4.3.1]dec-9-yl]ethyl}cyclopentyl]-L-phenylalaninamide], the EC50 is 2500 nM.

Regarding `C[C@@H]1C[C@H]([C@H](c2ccc(F)cc2)[C@H](N)C(=O)N[C@H]2CCCC[C@@H]2CC[C@H]2CN[C@@H]3CCCS(=O)(=O)N2C3)C[C@H](C)O1` [Example 149, (βR)-β-[(2R,4r,6S)-2,6-dimelhyltclrahydro-2H-pyran-4-yl]-N-[(1S,2R)-2-{2-[(6R,9S)-2,2-dioxido-2-thia-1,7-diazabicyclo[4.3.1]dec-9-yl]ethyl}cyclohexyl]-4-fluoro-L-phenylalaninamide], the EC50 worked out at 97 nM.

In the case of `COC(=O)N[C@H](C(=O)N[C@H]1CCCC[C@@H]1CC[C@H]1CN[C@@H]2CCCS(=O)(=O)N1C2)[C@@H](c1ccc(Cl)cc1)c1ccc(OC)nc1` [Example 98, methyl [(1S,2S)-2-(4-chlorophenyl)-1-{[(1S,2R)-2-{2-[(6R,9S)-2,2-dioxido-2-thia-1,7-diazabicyclo[4.3.1]dec-9-yl]ethyl}cyclohexyl]carbamoyl}-2-(6-methoxypyridin-3-yl)ethyl]carbamate], the EC50 is 47 nM.

Turning to `N[C@H](C(=O)Nc1cccc(F)c1CCC1CNC2CCCS(=O)(=O)N1C2)[C@@H](c1ccc(F)cc1)c1cccc(C2CC2)c1` (stereo partly drawn) [Example 51, (βS)-3-cyclopropyl-N-{2-[2-(2,2-dioxido-2-thia-1,7-diazabicyclo[4.3.1]dec-9-yl)ethyl]-3-fluorophenyl}-β-(4-fluorophenyl)-L-phenylalaninamide], the EC50 turned out to be 20 nM.

Turning to `COC(=O)N[C@H](C(=O)Nc1cccc(F)c1CC[C@H]1CN[C@@H]2CCCS(=O)(=O)N1C2)C1(c2ccc(Cl)cc2)CCN(S(C)(=O)=O)CC1` [Example 175, methyl {(1S)-1-[4-(4-chlorophenyl)-1-(methylsulfonyl)piperidin-4-yl]-2-[(2-{2-[(6R,9S)-2,2-dioxido-2-thia-1,7-diazabicyclo[4.3.1]dec-9-yl]ethyl}-3-fluorophenyl)amino]-2-oxoethyl}carbamate], the EC50 came to 120 nM.

Take `COC(=O)N[C@H](C(=O)Nc1cccc(F)c1CCC1CNC2CCCS(=O)(=O)N1C2)[C@@H](c1ccc(F)cc1)C12CC(C1)C2` (stereo partly drawn) [Example 87, methyl [(1S,2R)-2-bicyclo[1.1.1]pent-1-yl-1-({2-[2-(2,2-dioxido-2-thia-1,7-diazabicyclo[4.3.1]dec-9-yl)ethyl]-3-fluorophenyl}carbamoyl)-2-(4-fluorophenyl)ethyl]carbamate]: the EC50 was 130 nM.

For `N[C@H](C(=O)Nc1cncc(F)c1CC[C@H]1CN[C@@H]2CCCS(=O)(=O)N1C2)[C@@H](c1ccc(Cl)cc1)C1CCOCC1` [Example 173, (βR)-4-chloro-N-(4-{2-[(6R,9S)-2,2-dioxido-2-thia-1,7-diazabicyclo[4.3.1]dec-9-yl]ethyl}-5-fluoropyridin-3-yl)-β-(tetrahydro-2H-pyran-4-yl)-L-phenylalaninamide], the EC50 turned out to be 23 nM.

As for `CC1(C)CC([C@H](c2ccc(F)cc2)[C@H](N)C(=O)N[C@H]2CCC[C@@H]2CC[C@H]2CN[C@@H]3CCCS(=O)(=O)N2C3)CCO1` (stereo partly drawn) [Example 54, (βR)-β-(2,2-dimethyltetrahydro-2H-pyran-4-yl)-N-[(1S,2R)-2-{2-[(6R,9S)-2,2-dioxido-2-thia-1,7-diazabicyclo[4.3.1]dec-9-yl]ethyl}cyclopentyl]-4-fluoro-L-phenylalaninamide], the EC50 was determined as 180 nM.

`CC(C)O[C@H]1CC[C@H]([C@H](c2ccc(Cl)cc2)[C@H](N)C(=O)Nc2cncc(F)c2CC[C@H]2CN[C@@H]3CCCS(=O)(=O)N2C3)CC1` [Example 250, (βR)-4-chloro-N-(4-{2-[(6R,9S)-2,2-dioxido-2-thia-1,7-diazabicyclo[4.3.1]dec-9-yl]ethyl}-5-fluoropyridin-3-yl)-β-[(1r,4R)-4-(1-methylethoxy)cyclohexyl]-L-phenylalaninamide]: the EC50 is 7.7 nM.

As for `COC(=O)N[C@H](C(=O)Nc1cccc(F)c1CC[C@H]1CN[C@@H]2CCCCS(=O)(=O)N1C2)[C@@H](c1ccc(F)cc1)c1cc(F)cc(F)c1` [Example 277, Methyl ((1S,2S)-1-(3,5-difluorophenyl)-3-((2-(2-((7R,10S)-2,2-dioxido-2-thia-1,8-diazabicyclo[5.3.1]undecan-10-yl)ethyl)-3-fluorophenyl)amino)-1-(4-fluorophenyl)-3-oxopropan-2-yl)carbamate], the EC50 worked out at 10 nM.
